Where two headings read alike, the source gives them in different places.
Tests used:
[1] = tested on: wheat leaf rust, Puccinia recondita; assay: whole plant or invertebrate; assay type: in vivo; settings: foliar
[2] = tested on: wheat leaf rust, Puccinia recondita; assay: whole plant or invertebrate; assay type: in vivo; settings: foliar; remark: listed apart in the source
[3] = tested on: wheat leaf rust, Puccinia recondita; assay type: in vivo
[4] = tested on: wheat leaf rust, Puccinia recondita; assay: Foliar systemic activity on leaf rust; assay type: in vivo
Source text: Another type of systemic test was run in which pots of approximately 5 inch high wheat plants were sprayed with varying concentrations of the test compound. Thirty-six hours later they were sprayed six minutes in a rain machine which amounted to about one inch of normal rainfall. The plants were then placed in a greenhouse for 7 days and then inoculated with a spore suspension of wheat leaf rust, Puccinia recondita. About 7 days later lesion counts were made on ten leaves representing the sprayed leaves and new growth from each replicate and compared with similar pots of wheat plants which were untreated with a chemical and the percent disease control determined. Disease control on the new growth is a measure of systemic activity. The commercial product known by the trademarked name Plantvax, which is 2,3-dihydro-5-carboxanilido-6-methyl-1,4-oxathiin-4,4-dioxide, was used as a standard.

Pythium ultimum = settings: in vivo

Compound: CCCCn1cnnc1SC(=O)c1ccc(OC)cc1 [Example 121, 3-(4-methoxybenzoylmercapto)-4-n-butyl-1,2,4-triazole]
- pest or weed control at 280.212 g/ha ([1]; read-out: % Control (without rain), foliar, 0.25 lb.): 90%
- pest or weed control at 1120.85 g/ha ([1]; read-out: % Control (without rain), foliar, 1 lb.): 98%
- pest or weed control at 280.212 g/ha ([2]; read-out: % Control (with 1" of rain), foliar, 0.25 lb., 1" of rain): 100%
- pest or weed control at 1120.85 g/ha ([2]; read-out: % Control (with 1" of rain), foliar, 1 lb., 1" of rain): 100%
- % Systemic Wheat Leaf Rust Control ([3]; 2.5 ppm in soil): 98%
- % Systemic Wheat Leaf Rust Control ([3]; 5 ppm in soil): 100%
- % Systemic Wheat Leaf Rust Control ([3]; 10 ppm in soil): 100%
- % Rust Control, New growth ([4]; 1/2 lb./100 gal.): 92%
- % Rust Control, Sprayed Leaf ([4]; 1/2 lb./100 gal.): 95%
- % Rust Control, New growth ([4]; 1/6 lb./100 gal.): 79%
- % Rust Control, Sprayed Leaf ([4]; 1/6 lb./100 gal.): 81%
- % Rust Control, New growth ([4]; 1/12 lb./100 gal.): 77%
- % Rust Control, Sprayed Leaf ([4]; 1/12 lb./100 gal.): 91%
- control of Pythium ultimum (Pythium ultimum): excellent control

— patent US4120864A, “1,2,4-4H-triazole derivatives” (Rohm and Haas Company, priority 1972, dated 1978)
